Measured values published in patent US8940909B2, “Indicator platform” (Biosynth AG, priority 2009, dated 2015).
“Also recorded” adds a separate entry of the source.

Key:
[1] = Water solubility and fluorescence of IO dyes from ester indicators; type: physicochemical; details: above pH 5
Excerpt: Upon further acidification said dyes formed orange colored non-fluorescent precipitates from aqueous solutions. […] Evidently, said dyes are highly acidic in nature and highly fluorescent in deprotonated form.

Eschericha coli (NM1) = assay: MDAB staining of bacterial colonies with indicators I9a, I10a, I11a, I12a on Nutrient Agar, aerobic; type: cell-based; details: for colonial morphology, aerobic conditions: Escherichia coli (b-gal +), aR MDAB, equivalents 1:1, after 48 h of incubation; for Effectiveness of indicator system with MDAB under aerobic conditions: in combination with MDAB
Protocol: (§1) Indicators were tested with live cultures on Nutrient Agar plates. Nutrient Agar (5 g/l peptone, 5 g/l NaCl, 2 g/l yeast extract, 1 g/l beef extract, 13 g/l agar, pH 7.4) was autoclaved and allowed to cool to 50° C. Then substrates were added to final concentrations of 150 mg/l (from a 20 mg/ml stock solution in DMF). Optionally MDAB was added to a concentration of 1 mM (from a 200 mM stock solution in DMF) and plates were poured. Agar plates were inoculated with cultures of Eschericha coli (NM1) or Salmonella enteritidis (RKI 05/07992) (pre-grown on nutrient broth for 8-18 hours) and aerobically incubated at 37° C.

[2] = test system: Salmonella enteritidis (RKI 05/07992); assay: as above; type: cell-based; details: Salmonella enteritidis (b-gal −); aR MDAB, equivalents 1:1; after 48 h of incubation
Protocol: as §1

[3] = test system: beta-galactosidase negative Salmonella enteritidis (RKI 05/07992); type: cell-based; details: S. enteritidis (b-gal negative), 24 h, 150 mg/l substrate and 100 mg/l IPTG; for F: Fluorescence of colonies (strength): 366 nm UV; on all read-outs here: key: −: absent; +/−: weak; +: strong; ++: very strong
Protocol: (§2) Nutrient Agar (5 g/l peptone, 5 g/l NaCl, 2 g/l yeast extract, 1 g/l beef extract, 13 g/l agar, pH 7.4) was autoclaved and allowed to cool to 50° C. Then indicators were added to final concentrations of 150 mg/l (from a 20 mg/ml stock solution in DMF).
(§3) Optionally IPTG was added to 100 mg/l (from a 100 mg/ml stock solution in H2O) and plates were poured. Agar plates were inoculated with cultures of beta-galactosidase positive Eschericha coli (NM1) or beta-galactosidase negative Salmonella enteritidis (RKI 05/07992) (pre-grown on nutrient broth for 8-18 hours) and incubated at 37° C. Plates were inspected at 16, 20, 24 and 48 hours and pictures were recorded at 18, 24, and 48 hours with a Digistore 2 Image documentation system (CAMAG) under white light.
(§4) A considerable number of indicators molecules (Table IVa, IVb) and a selection of labile groups (Table IVc) were tested with various microbial species producing different biomarker enzymes (external stimuli, eS). The color of stains ranges from yellow to red.
(§5) Plating media from Example 10 were examined under 366 nm UV irradiation at 16, 20, 24 and 48 hours for fluorescence by means of Digistore 2 Image documentation system (CAMAG). Loops of bacterial cells, grown for 48 hours on Nutrient Agar plates containing 150 mg/l beta-D-galactosidase indicator and 100 mg/l IPTG, were directly streaked into wells of black clear bottom microtiter plates. Fluorescence scans were recorded on a Spectramax M5 (Molecular Devices).

[4] = test system: beta-galactosidase positive Eschericha coli (NM1); assay: IO staining of bacterial colonies on Nutrient Agar (color, fluorescence, localization, growth); on C: Color of colonies (strength): key: −: absent; +/−: weak; +: strong; ++: very strong; on F: Fluorescence of colonies (strength): key: −: absent; +/−: weak; +: strong; ++: very strong; on G: Growth of colonies: key: −: absent; +/−: weak; +: strong; ++: very strong; on L: Localization of stain on colonies: key: −: absent; +/−: weak; +: strong; ++: very strong; type: cell-based, E. coli; details: 150 mg/l substrate and 100 mg/l IPTG; for F: Fluorescence of colonies (colour) / G: Growth of colonies / L: Localization of stain on colonies / F: Fluorescence of colonies (strength): 24 h; for F: Fluorescence of colonies (colour) / F: Fluorescence of colonies (strength): 366 nm UV; for C: Color of colonies (colour of stain) / C: Color of colonies (strength): 24 h on Nutrient Agar; for G: Growth of colonies / L: Localization of stain on colonies / F: Fluorescence of colonies (strength) / C: Color of colonies (strength): E. coli
Protocol: as §2, §3, §4, §5

Saccharomyces cerevisiae = assay: IO staining of fungal colonies; type: cell-based; details: Saccharomyces cerevisiae strain 306, galactosamidase −; agar plates containing indicator; on growth: key: −: absent; +/−: weak/variable; +: strong
Protocol: (§6) Agar base (6 g/l soytone, 1.5 g/l yeast extract, 1 g/l glucose, 10 mM sodium phosphate buffer, 13 g/l agar, pH 7.0) was autoclaved and allowed to cool to 50° C. Then 1 mM MnSO4, 1 g/l N-Acetyl-D-galactosamine and: 1-(2-benzoylphenyl)-6-chloro-1H-indol-3-yl-N-acetyl-beta-D-galactosaminide (I21g) were added to final concentrations of 0.64 mM (from a 50 mM stock solution in DMF) and plates poured. Plates were inoculated with Candida albicans, Candida krusei and Saccharomyces cerevisiae and incubated at 37° C. for 48 hours.

Candida krusei = assay: IO staining of fungal colonies; type: cell-based; details: Candida krusei strain 305, galactosamidase −; agar plates containing indicator; on growth: key: −: absent; +/−: weak/variable; +: strong
Protocol: as §6

Candida albicans = assay: IO staining of fungal colonies; type: cell-based; on growth: key: −: absent; +/−: weak/variable; +: strong
Protocol: as §6

[5] = Indication of carbamate hydrolysis by alkali; details: short treatment with 1N aqueous NaOH solution
pig liver esterase = assay: Indication of carbamate hydrolysis by esterase; type: biochemical; details: prolonged exposure to pig liver esterase
[6] = Indication of disulfide reduction by TCEP
[7] = Candida albicans strain 304, galactosamidase +, agar plates containing indicator

Compound	Effectiveness of indicator system with MDAB under aerobic conditions (Eschericha coli (NM1))	colonial morphology, aerobic conditions [2]	C: Color of colonies (strength) [3]	F: Fluorescence of colonies (strength) [3]	F: Fluorescence of colonies (colour) [4]	C: Color of colonies (colour of stain) [4]	G: Growth of colonies [4]	L: Localization of stain on colonies [4]	F: Fluorescence of colonies (strength) [4]	C: Color of colonies (strength) [4]	further results
O=C1c2ccccc2-n2c1c(O)c1ccccc12 [IO10, 11-Hydroxy-10H-indolo[1,2-a]indol-10-one]											Solubility in water [1]: freely soluble; also recorded: readily water-soluble
OC[C@H]1O[C@@H](Oc2cn(-c3ccccc3)c3cc(Cl)ccc23)[C@H](O)[C@@H](O)[C@H]1O [Indicator I9a, 6-Chloro-1-phenyl-1H-indol-3-yl-beta-D-galactopyranoside]	effective	Cream colored colonies									colonial morphology, aerobic conditions (Eschericha coli (NM1)): Red colored colonies
COC(=O)c1ccccc1-n1cc(O[C@@H]2O[C@H](CO)[C@H](O)[C@H](O)[C@H]2O)c2ccccc21 [Indicator I10a, 1-[2-(Methoxycarbonyl)phenyl]-1H-indol-3-yl-beta-D-galactopyranoside]	effective	Cream colored colonies	−	−	green	yellow-green	+	−	+	+	
COC(=O)c1ccccc1-n1cc(O[C@@H]2O[C@H](CO)[C@H](O)[C@H](O)[C@H]2O)c2ccc(Cl)cc21 [Indicator I11a, 6-Chloro-1-[2-(methoxycarbonyl)phenyl]-1H-indol-3-yl-beta-D-galactopyranoside]	effective	Cream colored colonies	−	−	green	yellow-green	+	−	+	+	
COC(=O)c1ccccc1-n1cc(O[C@@H]2O[C@H](CO)[C@H](O)[C@H](O)[C@H]2O)c2c(Cl)c(Br)ccc21 [Indicator I12a, 5-Bromo-4-chloro-1-[2-(methoxycarbonyl)phenyl]-1H-indol-3-yl-beta-D-galactopyranoside]	effective	Cream colored colonies	−	−	green	yellow-green	+	−	+/−	+/−	colonial morphology, aerobic conditions (Eschericha coli (NM1)): Brown colored colonies
CC(=O)N[C@H]1[C@H](Oc2cn(-c3ccccc3C(=O)c3ccccc3)c3cc(Cl)ccc23)O[C@H](CO)[C@H](O)[C@@H]1O [Indicator I21g, 1-(2-Benzoylphenyl)-6-chloro-1H-indol-3-yl-N-acetyl-beta-D-galactosaminide]											Color (Saccharomyces cerevisiae): Cream; Growth (Saccharomyces cerevisiae): +/−; Color (Candida krusei): Cream; Growth (Candida krusei): +/−; Color (Candida albicans; [7]): Yellow; Growth (Candida albicans; [7]): +/−; Color of fungal colonies producing matching external stimulus (Candida albicans; D-galactosamidase biomarker of Candida albicans): bright yellow
CCNC(=O)Oc1cn(-c2ccccc2C(=O)c2ccccc2)c2ccccc12 [Indicator I32, 1-(2-Benzoylphenyl)-1H-indol-3-yl ethyl carbamate]											Signal on alkaline carbamate hydrolysis [5]: yellow precipitate; Signal on carbamate hydrolysis by esterase (pig liver esterase): yellow precipitate
CC(=O)c1ccccc1-n1cc(SSc2cn(-c3ccccc3C(C)=O)c3ccccc23)c2ccccc21 [Indicator I33, Bis[1-(2-acetylphenyl)-1H-indol-3-yl]-disulfane]											Signal on disulfide reduction, alkaline conditions ([6]; alkaline conditions (1 N aqueous sodium hydroxide)): the solution turned yellow; Signal on disulfide reduction, neutral conditions ([6]; neutral conditions): no detectable signal
